Assay results: patent US8586007B2, “Co-polymer stabilizers for hydrofluoroalkane dispersions” (Wayne State University, priority 2007, dated 2013)
Each block holds one compound with its values, some of them ahead of it.

How the values were obtained:
[1] = Colloidal probe microscopy (CPM): adhesion force (Fad) in liquid HPFP in the presence of surfactants and/or cosolvents; format: physicochemical; details: 298 K
Excerpt: Preparation and Characterization of the Drug-Modified AFM Cantilever (Colloidal Probe). Single salbutamol crystals were glued onto silicon nitride contact-mode cantilevers (NP-20) with the help of an AFM (Pico LE, Molecular Imaging). In brief, the cantilever was first positioned above a tiny drop of epoxy (Epotek 377). The AFM cantilever was then slowly approached toward the epoxy. A tiny amount of it was then carefully transferred onto the AFM tip. A similar procedure was used to attach the drug particle to the AFM tip containing the epoxy. The particle-modified AFM tip was then kept at room temperature for 24 h to allow the complete curing of the epoxy. SEM images of the drug-modified cantilevers were obtained after the adhesion force measurements to verify the integrity and quality of the probe. The spring constant of the drug-modified cantilevers was determined using a module attached to the AFM and the MI Thermal K 1.02 software. Preparation and Characterization of the Drug Crystal Substrate. Salbutamol was first dissolved in ethanol to saturation. The solution was then transferred onto a cover glass previously treated with piranha solution (7:3 v/v H2SO4/H2O2). The system was kept inside a scaled Petri dish. The crystallization process of salbutamol was induced by the controlled evaporation of ethanol. Optical microscopy was used to observe the crystal morphology. The surface topography of the salbutamol crystal was examined by AFM under tapping mode, with a silicon cantilever (BS-Multi 75). Colloidal Probe Microscopy (CPM). The force of adhesion (Fad) between the salbutamol-modified cantilever and a smooth salbutamol crystal substrate was determined by CPM, at 298 K. A fluid cell was used to perform the experiments in liquid HPFP. The procedure adopted here is similar to that used to investigate the effect of other excipients on drug-drug interactions. FIG. 2a is the schematic diagram of a typical force curve obtained during the CPM measurements. The Fad is determined as the product of the spring constant (k) of the drug-modified AFM cantilever and the maximum cantilever deflection (x) during the retraction stage of the force measurement; […]; as schematically shown in FIG. 2a. Several contact points, randomly distributed on the crystal surfaces over a 9 μm×9 μm area, were selected for the measurements. At each contact point, 25 force-distance curves were measured. The tip was moved toward and away from the substrate in a range of 2000 nm and a sweep duration of 2 s. The histograms of the measured Fad were fit to a Gaussian distribution, from which an average Fad and deviation were obtained. The same drug probe was used throughout the measurements to guarantee a constant contact area. Great care was taken to guarantee the integrity of the drug probe. Since the solubility of salbutamol in HPFP is negligible, before each new adhesion force measurement, the drug probe and drug crystal substrate were thoroughly rinsed with HPFP, followed by an Fad test in pure HPFP. […] A second set of completely independent measurements (new probe and crystal substrate) were obtained to assess the reproducibility of the reported trend in Fad.

[2] = Solubility in propellant / solvent; format: physicochemical

Fad probe 1 ([1]; no surfactant, cosolvent ethanol 7% (v/v) alone, probe 1): 6.31 ± 0.47 nN
Fad probe 2 ([1]; no surfactant, cosolvent ethanol 7% (v/v) alone): 5.01 ± 0.26 nN
SMILES: CCO [Ethanol]

Fad probe 1 ([1]; surfactant 1.0 mM with cosolvent ethanol 7% (v/v), probe 1): 1.54 ± 0.35 nN
Fad probe 1 ([1]; surfactant 1.0 mM with cosolvent ethanol 7% (v/v), probe 1, listed as oleic acid): 1.54 nN
Fad probe 2 ([1]; surfactant 1.0 mM with cosolvent ethanol 7% (v/v)): 1.64 ± 0.21 nN
SMILES: CCCCCCCC/C=C\CCCCCCCC(=O)O [Oleic acid]

Solubility in HPFP ([2]; HPFP): negligible
Solubility in ethanol ([2]; ethanol): appreciable solubility
SMILES: CC(C)(C)NCC(O)c1ccc(O)c(CO)c1 (stereo not shown) [salbutamol]
